In US20230391871A1, “MONOAMINE OXIDASE BLOCKADE THERAPY FOR TREATING CANCER THROUGH REGULATING TUMOR ASSOCIATED MACROPHAGES (TAMS)” (THE REGENTS OF THE UNIVERSITY OF CALIFORNIA, priority 2020, published 2023):
Read-outs that look alike come from different tables or passages of the source.

Experiments:
[1] = tested on: wildtype BMDMs (bone marrow-derived macrophages); assay: In vitro WT BMDM IL-4/IL-13-induced polarization culture with MAOI treatment; format: cell-based, mouse; details: IL-4/IL-13-stimulated WT BMDMs, 24 h
Method: (§1) (a) Experimental design. Wildtype BMDMs were stimulated with IL-4/IL-13 with or without MAOI treatment. MAOIs (monoamine oxidase inhibitors) studied were phenelzine (Phe: 20 μM), clorgyline (Clo: 20 μM), moclobemide (Moc: 200 μM), and pirlindole (Pir: 20 μM). NT, no MAOI treatment. (b) FACS analyses of ROS levels in BMDMs. (c) FACS analyses of CD206 expression on BMDMs. (d,e) QPCR analyses of Chi313 (d) and Arg1 (e) mRNA expression in BMDMs. f-j, Studying the TAM-related cancer immunotherapy potential of MAOI treatment in a B16-OVA melanoma syngeneic mouse tumour model (n=7-8). (f) Experimental design. B6 wildtype mice were treated with clodronate liposomes (Clod) to serve as TAM-depleted experimental mice, or treated with vehicle liposomes (Veh) to serve as TAM-intact control mice. Phe, phenelzine treatment: NT, no phenelzine treatment. (g) Tumour growth. (h) Tumour volume at day 18. (i) FACS analyses of CD206 expression on TAMs of TAM-intact experimental mice. (j) FACS analyses of intracellular Granzyme B production in tumour-infiltrating CD8^+ T cells of all experimental mice. k-o, Studying the cancer therapy potential of MAOI treatment in combination with anti-PD-1 treatment in the B16-OVA melanoma and MC38 colon cancer syngeneic mouse tumour models (n=5). (k) Experimental design. Tumour-bearing mice were treated with anti-PD-1 antibody (aPD-1) or isotype control (Iso), together with or without phenelzine (Phe) treatment. NT, no Phe treatment. (l) B16-OVA tumour growth. (m) B16-OVA tumour volume at day 18. (n) MC38 tumour growth. (o) MC38 tumour volume at day 27. Representative of 3 experiments. All data are presented as the mean±SEM. ns, not significant, *P<0.05, **P<0.01, and ***P<0.001, by I-way ANOVA (b-e, h, j, m, o) or by Student's t test (i).
To generate BMDMs, BM cells were collected from femurs and tibias of Maoa WT mice and Maoa KO mice, and were cultured in C10 medium containing with 20% of L929-conditional medium in a 10-cm dish (2×10^6 cells per ml: 12 ml per dish) for 6 days. At day 6, the resulting BMDMs were collected and reseeded in a 6-well plate (1×10^6 cells per ml: 2 ml per well) in C10 medium for 24 hours, in the presence or absence of recombinant murine IL-4 (10 ng/ml) (Peprotech, 200-04) and IL-13 (10 ng/ml) (Peprotech, 200-13) to induce BMDM immunosuppressive polarization.
In some experiments, MAOIs were added to the Maoa WT BMDM polarization culture 30 minutes prior to adding recombinant murine IL-4 and IL-13, to block MAO-A activity during BMDM polarization. MAOIs studied were phenelzine (Phe, 20 μM) (Sigma-Aldrich), clorgyline (Clo, 20 μM) (Sigma-Aldrich), moclobemide (Moc, 200 μM) (Sigma-Aldrich), and pirlindole (Pir, 20 μM) (R&D Systems). At 24 hours after IL-4/IL-13 stimulation, BMDMs were collected for analysis.
Cells were stained with surface marker antibodies, washed with PBS, then resuspended in pre-warmed PBS (1×10^6 cells/ml/tube) containing 1 μM CM-H2DCFDA (Thermo Fisher Scientific, C6827). After 15 minutes incubation at room temperature, cells were immediately washed with cold PBS followed by flow cytometry analysis. ROS levels were measured by oxidation of the CM-H2DCFDA probes that can be read out as the fluorescence intensity at the FITC/488 channel of a flow cytometer. Single cell RNA sequencing (scRNAseq) scRNASeq was used to analyze the gene expression profiles of TIIs. B16-OVA tumours were harvested from Maoa WT and Maoa KO mice to prepare TII suspensions (10 tumours were combined for each group). TII suspensions were then sorted using a FACSAria II flow cytometer to purify immune cells (gated as DAPI-CD45.2^+ cells). Sorted TIIs were immediately delivered to the Technology Center for Genomics & Bioinformatics (TCGB) facility at UCLA for library construction and sequencing.

B16-OVA melanoma = B16-OVA melanoma syngeneic mouse tumour model; format: in vivo
Method: as §1
Tumour-bearing mice treated with vehicle liposomes (Veh) were included as a control. The experimental design is shown in main FIG. 5F. FACS quantifications of TAMs (gated as CD45.2^+CD11b^+Ly6G^−Ly6C^−/lowF4/80^+ cells of total TIIs) are presented (n=7-8). b-f, Studying B16-OVA and MC38 tumour growth in B6 wildtype mice with or without phenelzine treatment (Phe or NT). (b) Experimental design. (c) B16-OVA tumour growth (n=10). (d) B16-OVA tumour volume at day 18. (e) MC38 tumour growth (n=6). (f) MC38 tumour volume at day 27. g-k, Studying B16-OVA and MC38 tumour growth in NSG mice with or without phenelzine treatment (Phe or NT: n=5). (g) Experimental design. (h) B16-OVA tumour growth. (i) B16-OVA tumour volume at day 18. (j) MC38 tumour growth. (k) MC38 tumour volume at day 21. Representative of 2 (a-f) and 4 (g-k) experiments.
B16-OVA melanoma cells (1×10^6 per animal) or MC38 colon cancer cells (5×10^5 per animal) were subcutaneously (s.c.) injected into experimental mice to form solid tumours. In some experiments, mice received intraperitoneal (i.p.) injection of phenelzine (30 mg/kg/day) to block MAO-A activity. In some experiments, mice received i.p. injection of clodronate liposomes (200 μl/animal, twice per week) to deplete TAMs: mice received i.p. injection of vehicle liposomes ([…], twice per week) were included as controls. In some experiments, mice received i.p. injection of anti-mouse PD-1 antibodies (300 μg/animal, twice per week) to block PD-1: mice received i.p. injection of isotype antibodies were included as controls. During an experiment, tumour growth was monitored twice per week by measuring tumour size using a Fisherbrand™ Traceable™ digital caliper (Thermo Fisher Scientific): tumour volumes were calculated by formula 1/2×L×W^2.

MC38 colon cancer = tested on: MC38 colon cancer
Method: as §1, with “Tumour-bearing mice were treated with anti-PD-1 antibody (aPD-1) or isotype control (Iso), together with or without phenelzine (Phe) treatment. NT, no Phe treatment. (l) B16-OVA tumour growth. (m) B16-OVA tumour volume at day 18. (n) MC38 tumour growth. (o) MC38 tumour volume at day 27. Representative of 3 experiments. All data are presented as the mean±SEM. ns, not significant, *P<0.05, **P<0.01, and ***P<0.001, by I-way ANOVA (b-e, h, j, m, o) or by Student's t test (i).” left out
Tumour-bearing mice treated with vehicle liposomes (Veh) were included as a control. […] FACS quantifications of TAMs (gated as CD45.2^+CD11b^+Ly6G^−Ly6C^−/lowF4/80^+ cells of total TIIs) are presented (n=7-8). b-f, Studying B16-OVA and MC38 tumour growth in B6 wildtype mice with or without phenelzine treatment (Phe or NT). […]
B16-OVA melanoma cells (1×10^6 per animal) or MC38 colon cancer cells (5×10^5 per animal) were subcutaneously (s.c.) injected into experimental mice to form solid tumours. […] During an experiment, tumour growth was monitored twice per week by measuring tumour size using a Fisherbrand™ Traceable™ digital caliper (Thermo Fisher Scientific): tumour volumes were calculated by formula 1/2×L×W^2.

[2] = NSG mice, phenelzine vs no treatment

In the case of `NNCCc1ccccc1` [phenelzine], the “ROS levels in BMDMs (FACS)” value ([1]; MAOI 20 μM added 30 min before cytokines) is reported as “efficiently reduced”, the “Arg1 mRNA expression in BMDMs (QPCR)” value ([1]; MAOI 20 μM) is reported as “decreased expression” and the “CD206 expression on BMDMs (FACS)” value ([1]; MAOI 20 μM) is reported as “decreased expression”. For the same compound, the “Chi313 mRNA expression in BMDMs (QPCR)” value ([1]; MAOI 20 μM) was “decreased expression”, the “immunosuppressive polarization of BMDMs” value ([1]; MAOI 20 μM) was “suppressed” and the “progression of pre-established B16-OVA solid tumours” value (B16-OVA melanoma; B6 wildtype mice, phenelzine vs no treatment (FIG. 11b-d)) was “effectively suppressed”. The “growth of B16-OVA tumours in immunodeficient NSG mice” value (B16-OVA melanoma; [2]) was “did not suppress”, the “CD206 expression on TAMs (FACS)” value (B16-OVA melanoma; TAMs from phenelzine-treated TAM-intact B16-OVA tumour-bearing mice) was “decreased expression” and the “progression of pre-established B16-OVA solid tumours” value (B16-OVA melanoma; combination study with anti-PD-1 antibody or isotype control (FIG. 5k-m), level comparable to anti-PD-1 alone) was “significantly suppressed”. For the same compound, the “Granzyme B production in tumour-infiltrating CD8+ T cells (FACS)” value (B16-OVA melanoma; phenelzine-treated B16-OVA tumour-bearing mice) was “increased production”, the B16-OVA tumour growth (B16-OVA melanoma; tumour prevention model, B6 wildtype mice, TAM-intact, phenelzine 30 mg/kg/day i.p.) was “effectively suppressed” and the “B16-OVA tumour growth in TAM-depleted mice” value (B16-OVA melanoma; tumour prevention model, B6 wildtype mice, TAMs depleted with clodronate liposomes, phenelzine vs no phenelzine) was “No tumour growth difference”. For the same compound, the “progression of pre-established MC38 solid tumours” value (MC38 colon cancer; B6 wildtype mice, phenelzine vs no treatment (FIG. 11e,f)) was “effectively suppressed”, the “growth of MC38 tumours in immunodeficient NSG mice” value (MC38 colon cancer; [2]) was “did not suppress” and the “progression of pre-established MC38 solid tumours” value (MC38 colon cancer; combination study with anti-PD-1 antibody or isotype control (FIG. 5n,o), level comparable to anti-PD-1 alone) was “significantly suppressed”.
